# Reference: ChEMBL document CHEMBL5236618, “Discovery and Optimization of Potent, Selective, and Brain-Penetrant 1-Heteroaryl-1H-Indazole LRRK2 Kinase Inhibitors for the Treatment of Parkinson's Disease” (J Med Chem, 2022)
# Experiments:
# [1] = Oral bioavailability in rat at 10 mg/kg measured upto 24 hrs by LC-MS/MS method; format: ADME, organism-based; settings: in vivo
# [2] = Mean residence time in rhesus monkey at 2 mg/kg, iv measured upto 24 hrs by LC-MS/MS method; format: ADME, organism-based, Macaca mulatta; settings: in vivo
# [3] = Oral bioavailability in dog at 3 mg/kg measured upto 24 hrs by LC-MS/MS method; format: ADME, organism-based, Canis lupus familiaris; settings: in vivo
# [4] = Unbound clearance in rat at 10 mg/kg, po or 2 mg/kg, iv measured upto 24 hrs by LC-MS/MS method; format: ADME, organism-based; settings: in vivo
# [5] = Clearance in rhesus monkey at 2 mg/kg, iv measured upto 24 hrs by LC-MS/MS method; format: ADME, organism-based, Macaca mulatta; settings: in vivo
# [6] = Mean residence time in rat at 10 mg/kg, po or 2 mg/kg, iv measured upto 24 hrs by LC-MS/MS method; format: ADME, organism-based; settings: in vivo
# [7] = Unbound brain-to-plasma concentration ratio in rat; format: ADME, cell-free; settings: read-out: K(p,uu,brain)
# [8] = Unbound clearance in rhesus monkey at 2 mg/kg, iv measured upto 24 hrs by LC-MS/MS method; format: ADME, organism-based, Macaca mulatta; settings: in vivo
# [9] = Mean residence time in dog at 3 mg/kg, po or 0.5 mg/kg, iv measured upto 24 hrs by LC-MS/MS method; format: ADME, organism-based, Canis lupus familiaris; settings: in vivo
# [10] = Unbound clearance in dog at 3 mg/kg, po or 0.5 mg/kg, iv measured upto 24 hrs by LC-MS/MS method; format: ADME, organism-based, Canis lupus familiaris; settings: in vivo
# [11] = Unbound brain-to-plasma concentration ratio in non human primates; format: ADME, cell-free; settings: read-out: K(p,uu,brain)
# [12] = Clearance in rat at 0.1 mg/kg, iv administered as cassette dose measured upto 24 hrs by LC-MS/MS method; format: ADME, organism-based; settings: in vivo
# [13] = Mean residence time in rat at 0.1 mg/kg, iv administered as cassette dose measured upto 24 hrs by LC-MS/MS method; format: ADME, organism-based; settings: in vivo
# [14] = Unbound clearance in rat at 0.1 mg/kg, iv administered as cassette dose measured upto 24 hrs by LC-MS/MS method; format: ADME, organism-based; settings: in vivo
SMILES,bioavailability [1] [%],MRT [2] [h],bioavailability [3] [%],CL free [4] [mL/min/kg],clearance [5] [mL/min/kg],MRT [6] [h],Kp uu [7],CL free [8] [mL/min/kg],MRT [9] [h],CL free [10] [mL/min/kg],Kp uu [11],clearance [12] [mL/min/kg],MRT [13] [h],CL free [14] [mL/min/kg]
C[C@@H]1CN(c2cc(-c3n[nH]c4ccc(OC5(C)CC5)cc34)ncn2)C[C@H](C)O1 [MLi-2],38,1.5,100,12700,16,2,0.5,3400,7,3200,0.4,,,
C[C@@H]1CN(c2cc(-c3ncc4ccc(-c5cnn(C)c5)cn34)ccn2)C[C@H](C)O1,,,,,,,,,,,,98,0.5,5850
